Measured values as given in US20120152149A1, “USE OF 1,3-DIOLS AS BIOCIDES” (BASF SE, priority 2009, published 2012).
Read-outs that look alike come from different tables or passages of the source.

Columns and labels:
Format in all cases: cell-based
[1] = system: series of tested microorganisms (bacteria and fungi); experiment: Microstatic activity, highest MIC from the series of tested microorganisms; details: highest measured MIC from the series of tested microorganisms
Experimental: The following microorganisms were used;to test the biocidal effect against various bacteria and fungi: In each case, the MIC (Minimum Inhibitory Concentration) value was determined. This value indicates the minimum concentration above which the growth of the microorganisms was visibly hindered compared to the corresponding sample without addition of the diol. The MIC value stated is a range between the next higher concentration of a positive test and the same and/or lower concentration of a first negative test. In the last line of each of the tables below, a “maximum” value is listed. This value indicates the highest measured MIC value in each case from the series of tested microorganisms.

[2] = system: E. coli NCIMB 8545; experiment: Microstatic activity, MIC in tryptone soy broth; details: 48 hours; for MIC: Escherichia coli, NCIMB8545, 30° C.
Experimental: (§1) For this, in each case a 40 percent strength by weight solution of a diol in propylene glycol was prepared at 60° C. This solution was diluted with a double-strength soy solution (double-strength tryptone soy broth) as nutrient medium in the volume ratio 1:1. Further dilution with soy solution produced solutions with the following concentrations: 400 000 ppm (40%), 200 000 ppm (20%), 100 000 ppm (10%), 50 000 ppm (5%), 25 000 ppm (2.5%), 12 500 ppm (1.25%), 6250 ppm (0.625%), 3125 ppm (0.3125%). Pure soy solution was used as negative control. The positive control used was a solution of 5 ml of soy solution which has been treated with 0.1 ml of the respective microorganism. The test solutions consisted of 5 ml of the above-described soy solutions of the diols in the particular concentration which have been mixed with 0.1 ml of the respective microorganism. The samples and controls were incubated in the case of the bacteria at 30° C. for 48 hours, and in the case of fungi over 5 days at 25° C. In each case, the MIC (Minimum Inhibitory Concentration) value was determined. This value indicates the minimum concentration above which the growth of the microorganisms was visibly hindered compared to the corresponding sample without addition of the diol. […] For example, this was evident from the occurrence of clouding or visible growth of the microorganism. […] The MIC value stated is a range between the next higher concentration of a positive test and the same and/or lower concentration of a first negative test.

[3] = system: P. vulgaris NCIMB 4175; experiment: Microstatic activity, MIC in tryptone soy broth; details: Proteus vulgaris, NCIMB4175, 30° C., 48 hours
Experimental: as §1

[4] = system: S. aureus NCIMB 9578; experiment: Microstatic activity, MIC in tryptone soy broth; details: Staphylococcus aureus, NCIMB9578, 30° C., 48 hours
Experimental: as §1

[5] = system: A. niger IMI 149007; experiment: Microstatic activity, MIC in tryptone soy broth; details: Aspergillus niger, IMI149007, 120 h, 25° C., 5 days
Experimental: as §1

[6] = system: P. aeruginosa NCIMB 10421; experiment: Microstatic activity, MIC in tryptone soy broth; details: Pseudomonas aeruginosa, NCIMB10421, 30° C., 48 hours
Experimental: as §1

[7] = system: C. albicans NCPF 3179; experiment: Microstatic activity, MIC in tryptone soy broth; details: Candida albicans, NCPF3179, 120 h, 25° C., 5 days
Experimental: as §1

[8] = system: C. albicans ATCC 10231; experiment: Preservation stress test, example formulation 1 (standard emulsion O/W); details: 1% active substance
Experimental: (§2) Preservation stress tests (PSTs) were carried out in order to determine the preserving activity of the diols. In the preservation stress test, this is simulated through artificial loadings with microorganisms. These can either be inoculated as mixed population or individually in mixtures independent of one another. The inoculated product samples are incubated under defined conditions and, after defined times, samples are taken in order to determine the germ loading. In the case of adequate preservation, the number of microorganisms should, depending on the type, either decrease or remain constant in order to satisfy the requirements specified, e.g. in Ph. Eur. 6.0. To investigate the preserving effect of the diols, application-typical amounts of the diols were incorporated into example formulations. […] [table] These example formulations were used to prepare various mixtures which each comprised 1% active substance or comprised water instead of the active substance as placebo mixtures. These mixtures were in each case inoculated with the test germs such that a germ loading of 10^5-10^6 CFU/g was present in the test mixture. The bacteria were either used individually for the inoculation or as a mixed culture. To determine the starting germ count, immediately after inoculation, an aliquot was taken, diluted in dilution medium (phosphate buffer, 0.07 molar pH 7.4 (+/−0.2), with 1% Tween 80+0.3% soya lecithin), and the surviving germ count was determined in the dilution stages 10^−1 to 10^−3. The inoculated product samples then incubated for a total of 28 d at 20-25° C. After 2 d, 7 d, 14 d and after 28 d, aliquots were taken and diluted in dilution medium (phosphate buffer, 0.07 molar pH 7.4 (+/−0.2), with 1% Tween 80+0.3% soya lecithin). The surviving germ counts were determined in the dilution stages 10^−1 to 10^−4. The reference point taken for determining the reduction in germ count was the respective initial value of the sample. The results were given as logarithmic reductions.

[9] = system: P. aeruginosa ATCC 15442; experiment: as above; details: 1% active substance
Experimental: as §2

[10] = system: E. coli ATCC 10536; experiment: as above; details: 1% active substance
Experimental: as §2

[11] = system: A. niger ATCC 16404; experiment: as above; details: 1% active substance
Experimental: as §2

[12] = system: S. aureus ATCC 6538; experiment: as above; details: 1% active substance
Experimental: as §2

[13] = lower limit, read-out: Maximum MIC value (ppm of diol), from
[14] = lower limit of MIC range, read-out: MIC value (ppm of diol), from
[15] = upper limit of MIC range, read-out: MIC value (ppm of diol), to
[16] = upper limit, read-out: Maximum MIC value (ppm of diol), to

Row | SMILES | MIC [1, 13] | MIC [2, 14] | MIC [2, 15] | MIC [3, 14] | MIC [3, 15] | MIC [4, 14] | MIC [4, 15] | MIC [5, 14] | MIC [5, 15] | MIC [6, 14] | MIC [7, 14] | MIC [7, 15] | MIC [1, 16] | MIC [6, 15] | other results
1 | OCC1(CO)CCCCC1 [DMCH, 1,1-dimethylolcyclohexane] | > 25 mg/mL | > 6.25 mg/mL | ≤ 12.5 mg/mL | > 12.5 mg/mL | ≤ 25 mg/mL | > 12.5 mg/mL | ≤ 25 mg/mL | > 25 mg/mL | ≤ 50 mg/mL | > 12.5 mg/mL | > 25 mg/mL | ≤ 50 mg/mL | ≤ 50 mg/mL | ≤ 25 mg/mL | –
2 | CC(O)CC(C)O (centres unmarked) [2,4-Pentanediol, 2,4-pentanediol, reference compound] | – | > 50 mg/mL | ≤ 100 mg/mL | > 50 mg/mL | ≤ 100 mg/mL | > 50 mg/mL | ≤ 100 mg/mL | – | – | > 50 mg/mL | > 50 mg/mL | ≤ 100 mg/mL | – | ≤ 100 mg/mL | –
3 | CCC(C)(CO)CO [EMPD, 2-ethyl-2-methylpropane-1,3-diol] | > 50 mg/mL | > 12.5 mg/mL | ≤ 25 mg/mL | > 25 mg/mL | ≤ 50 mg/mL | > 25 mg/mL | ≤ 50 mg/mL | > 50 mg/mL | ≤ 100 mg/mL | > 12.5 mg/mL | > 50 mg/mL | ≤ 100 mg/mL | ≤ 100 mg/mL | ≤ 25 mg/mL | –
4 | CCCCC(O)CO (centres unmarked) [1,2-Hexanediol, 1,2-hexanediol] | – | – | – | – | – | – | – | – | – | – | – | – | – | – | Microbicidal activity given as logarithmic reduction in germ count ([8]; 48 h): 0 log. Red.; Microbicidal activity given as logarithmic reduction in germ count ([8]; 7 d): 0 log. Red.; Microbicidal activity given as logarithmic reduction in germ count ([8]; 14 d): 0 log. Red.; Microbicidal activity given as logarithmic reduction in germ count ([8]; 28 d): 1 log. Red.; Microbicidal activity given as logarithmic reduction in germ count ([9]; 48 h): 0 log. Red.; Microbicidal activity given as logarithmic reduction in germ count ([9]; 7 d): 1 log. Red.; Microbicidal activity given as logarithmic reduction in germ count ([9]; 14 d): 1 log. Red.; Microbicidal activity given as logarithmic reduction in germ count ([9]; 28 d): ≧3 log. Red.; Microbicidal activity given as logarithmic reduction in germ count ([10]; 48 h): 0 log. Red.; Microbicidal activity given as logarithmic reduction in germ count ([10]; 7 d): 1 log. Red.; Microbicidal activity given as logarithmic reduction in germ count ([10]; 14 d): 2 log. Red.; Microbicidal activity given as logarithmic reduction in germ count ([10]; 28 d): ≧3 log. Red.; Microbicidal activity given as logarithmic reduction in germ count ([11]; 48 h): 0 log. Red.; Microbicidal activity given as logarithmic reduction in germ count ([11]; 7 d): 0 log. Red.; Microbicidal activity given as logarithmic reduction in germ count ([11]; 14 d): 0 log. Red.; Microbicidal activity given as logarithmic reduction in germ count ([11]; 28 d): 0 log. Red.; Microbicidal activity given as logarithmic reduction in germ count ([12]; 48 h): 1 log. Red.; Microbicidal activity given as logarithmic reduction in germ count ([12]; 7 d): 1 log. Red.; Microbicidal activity given as logarithmic reduction in germ count ([12]; 14 d): ≧3 log. Red.; Microbicidal activity given as logarithmic reduction in germ count ([12]; 28 d): 5 log. Red.
5 | CC(O)CO (centres unmarked) [Propylene glycol, propylene glycol, reference compound] | – | – | – | > 100 mg/mL | – | – | – | – | – | > 100 mg/mL | – | – | – | – | –

Continued, in another order:

Row | MIC [1, 13] | MIC [2, 14] | MIC [2, 15] | MIC [3, 14] | MIC [3, 15] | MIC [4, 14] | MIC [4, 15] | MIC [5, 14] | MIC [5, 15] | MIC [6, 14] | MIC [7, 14] | MIC [7, 15] | MIC [1, 16] | MIC [6, 15] | SMILES | other results
6 | > 100 mg/mL | > 25 mg/mL | ≤ 50 mg/mL | > 50 mg/mL | ≤ 100 mg/mL | > 50 mg/mL | ≤ 100 mg/mL | > 12.5 mg/mL | ≤ 25 mg/mL | > 100 mg/mL | > 25 mg/mL | ≤ 50 mg/mL | – | – | CC(C)CCC(CO)(CO)C(C)C [IMBPD, 2-isopropyl-2-(3-methylbutyl)propane-1,3-diol] | –
7 | > 12.5 mg/mL | > 3.12 mg/mL | ≤ 6.25 mg/mL | > 6.25 mg/mL | ≤ 12.5 mg/mL | > 6.25 mg/mL | ≤ 12.5 mg/mL | > 6.25 mg/mL | ≤ 12.5 mg/mL | > 12.5 mg/mL | > 6.25 mg/mL | ≤ 12.5 mg/mL | ≤ 25 mg/mL | ≤ 25 mg/mL | OCC1(CO)CCCCCCC1 [DMCO, 1,1-dimethylolcyclooctane] | –
8 | > 12.5 mg/mL | > 3.12 mg/mL | ≤ 6.25 mg/mL | > 3.12 mg/mL | ≤ 6.25 mg/mL | > 6.25 mg/mL | ≤ 12.5 mg/mL | > 12.5 mg/mL | ≤ 25 mg/mL | > 12.5 mg/mL | > 12.5 mg/mL | ≤ 25 mg/mL | ≤ 25 mg/mL | ≤ 25 mg/mL | OCC1(CO)CC/C=C\CCC1 [DMCOE, 1,1-dimethylolcyclooct-4-ene] | –
9 | > 50 mg/mL | – | ≤ 3.12 mg/mL | > 3.12 mg/mL | ≤ 6.25 mg/mL | > 12.5 mg/mL | ≤ 25 mg/mL | > 50 mg/mL | ≤ 100 mg/mL | > 25 mg/mL | > 50 mg/mL | ≤ 100 mg/mL | ≤ 100 mg/mL | ≤ 50 mg/mL | CC(CO)(CO)c1ccccc1 [MPPD, 2-methyl-2-phenylpropane-1,3-diol] | MIC value (ppm of diol), from ([2]; 30° C., lower limit of MIC range): >0 ppm
10 | > 50 mg/mL | > 6.25 mg/mL | ≤ 12.5 mg/mL | > 3.12 mg/mL | ≤ 6.25 mg/mL | > 12.5 mg/mL | ≤ 25 mg/mL | > 12.5 mg/mL | ≤ 25 mg/mL | > 50 mg/mL | > 25 mg/mL | ≤ 50 mg/mL | ≤ 100 mg/mL | ≤ 100 mg/mL | CCCCC(CC)(CO)CO [BEPD, 2-butyl-2-ethylpropane-1,3-diol] | –
